The source of these data is patent US20260200982A1, “HER RECEPTOR DERIVED PEPTIDES AND METHODS OF USE THEREOF” (Ramot at Tel-Aviv University Ltd., priority 2022, published 2026).

The test system of one test is Rat-1 fibroblast cells. Description: Methylene blue viability assay, Rat-1. The test is classed as cell-based. To be noted: FIG. 4C. The source says:
Cell lines—Human breast cancer cell lines SKBR3 [Peles E et al. EMBO J. (1993) 12(3):961-71] and MCF7 [Faigenbloom L et al., Mol Syst Biol. (2015) 11(12):845] and human glioblastoma U87 [Goldberg L et al. Cancer Res. (2006) 66(24):11709-17] cell line, as well as Rat-1 fibroblast cells and H-Ras-transformed Rat-1 cells (EJ cells) [Marom M et al. J Biol Chem. (1995) 270(38):22263-70] and human Panc-1 and MIA PaCa-2 pancreatic cell lines (Rak R et al. Oncoscience. 2014 1(1):39-48; Weisz B et al. Oncogene (1999) 18, 2579±2588) were all grown in Dulbecco's modified Eagle's medium (DMEM; Biological Industries, Beithaemek, Israel). Human colorectal cancer cell lines DLD-1 (ATTC Cat No. CCL-221), HCT-116 (ATTC Cat No. CCL-247) and LNCaP prostate cancer cells were grown in Roswell Park Memorial Institute 1640 (RPMI 1640) medium and McCoy's 5A media, respectively (Sigma-Aldrich). All media were supplemented with antibiotics and 10% heat-inactivated fetal bovine serum (FBS; Gibco). Human breast cell line MCF10A [Bott A et al. Oncotarget. […]
Methylene blue viability assay—Cells were plated in 96-wells plates at cell densities of 1.5×10^3 (EJ, DLD-1), 3×10^3 (Rat-1, HCT-116, U87), 5×10^3 (SKBR3, MCF7) and 6×10^3 (MCF10A) cells/well. […] IC-50 values were calculated using a non-linear regression model (logarithmic inhibitor vs. normalized response-variable slope) with the GraphPad Prism 6 software.

Test [1] concerns EGFR (ErbB1). Description: Immunoblotting of cell lysates, EGFR phosphorylation. Type of test: cell-based, human. Conditions: DLD-1 or Panc-1 cells; 24 hours; 25 μM and 10 μM; FIGS. 13A-B. How it is done:
(§1) Lysate preparation and immunoblotting—Cells were seeded at cell densities of 1.5×10^5 (DLD-1), 1.8×10^5 (HCT-116) and 2.5×10^5 (SKBR3) cells/well, treated as indicated and grown for 24 hours. Following, cells were lysed in solubilization buffer; the lysates were cleared by centrifugation and a boiling gel sample buffer was added. Proteins were resolved by SDS-polyacrylamide gel electrophoresis through 10% polyacrylamide gels, and were electrophoretically transferred to nitrocellulose membranes. Membranes were blocked in TBST buffer containing 6% milk, and blotted with primary antibodies. Following, a secondary antibody linked to horseradish peroxidase was added. Immunoreactive bands were detected with the enhanced chemiluminescence reagent Immobilon Crescendo Western HRP substrate (WBLUR0100; Merck Millipore).
For orientation: In western blotting, separated proteins are transferred to a membrane and probed.

Test [2] relates to Panc-1 (pancreatic cancer) tumor xenografts. As to the kind of experiment: Pancreatic Tumor Growth in Nude Mice. Type of test: in vivo. Conditions: Panc-1 xenografts, 25 μg intraperitoneal daily, FIGS. 9A-C. How it is done:
(§2) Pancreatic Tumor Growth in Nude Mice—The study was conducted according to the NIH Guidelines for Use and Care of Laboratory Animals and following the approval by Animal Care Committee of the Tel Aviv University. Nude CD1-Nu mice (25-30 g) housed in barrier facilities on a 12-h light/dark cycle one week prior to the injection of tumor cells (day zero). On day zero, 2×10^6 Panc 1 cells in 0.1 ml of PBS were implanted subcutaneously just above the right femoral joint. Tumor size was measured every 3-4 days. When the tumors were apparently seen and the calculated tumor size was 40 mm^3, the animals were divided randomly into two groups of mice (control vehicle treated and myr-NLS (SEQ ID NO: 5) treated; 8 mice per group). Treatment with the myr-NLS (SEQ ID NO: 5) was performed by intraperitoneal injection of 25 μg in 100 μl PBS (or 100 μl PBS for control mice) every day. Tumors size was measured 3 times a week. At the end of the experiment, the mice were sacrificed, and the tumors were dissected and used for further analysis.

For test [3], the system named is EGFR (ErbB1). As to the kind of experiment: Western blot analysis of dissected Panc-1 tumors, EGFR. Conditions: Panc-1 tumor lysates. The test is classed as in vivo, human. As for the experimental part:
as §2
Western blot analysis—Half of each tumor was homogenized in lysis buffer, using a Potter-Elvehjem manual homogenizer, cleared and kept at −70° C. The lysates (30 μg) were resolved by SDS-polyacrylamide gel electrophoresis (SDS-PAGE) and transferred to nitrocellulose membranes. The membranes were blocked with TBST buffer containing 6% milk and reacted with the indicated primary antibodies followed by second antibodies. Immunoreactive bands were detected with the enhanced chemiluminescence reagent (Luminata Crescendo Western HRP). Densitometric quantification analysis of the resulted images was done using ImageJ program.
Following, the present inventors examined whether the reduction of the tumor growth rate correlates with alterations expression and activation of the relevant proteins. To this end, lysates were prepared form the dissected tumors for protein levels evaluations. The tumor lysates were processed for western blot analysis (30 μg protein, 10% SDS polyacrylamide gel electrophoresis) and protein levels were determined using the indicated antibodies.

For a further test, the system named is Akt. As to the kind of experiment: Western blot analysis of dissected Panc-1 tumors, Akt. The test is classed as in vivo, human. Conditions: Panc-1 tumor lysates; FIGS. 10A-C. How it is done: as §2
(§3) Western blot analysis—Half of each tumor was homogenized in lysis buffer, using a Potter-Elvehjem manual homogenizer, cleared and kept at −70° C. […] Immunoreactive bands were detected with the enhanced chemiluminescence reagent (Luminata Crescendo Western HRP). Densitometric quantification analysis of the resulted images was done using ImageJ program. […]

Test [4] addresses T1, nucleolin (Homo sapiens, UniProt P19338). Description: Western blot analysis of dissected Panc-1 tumors, nucleolin. Conditions: Panc-1 tumor lysates; FIGS. 10A-C. The arrangement: endogenous in cells; host or cells: Panc-1. Type of test: in vivo. As for the experimental part: as §2, §3
The target in test [5] is T1, nucleolin. As to the kind of experiment: Immunoblotting of cell lysates, nucleolin level. Type of test: cell-based. More on the design: endogenous in cells; host or cells: DLD-1, Panc-1. Conditions: DLD-1 or Panc-1 cells; 24 hours; 25 μM and 10 μM; FIGS. 13A-B. As for the experimental part: as §1

“Also recorded” adds a separate entry of the source. The star is where a group is joined. Myristoyl = CCCCCCCCCCCCCC(=O)*

T1 sequence (P19338 whole entry): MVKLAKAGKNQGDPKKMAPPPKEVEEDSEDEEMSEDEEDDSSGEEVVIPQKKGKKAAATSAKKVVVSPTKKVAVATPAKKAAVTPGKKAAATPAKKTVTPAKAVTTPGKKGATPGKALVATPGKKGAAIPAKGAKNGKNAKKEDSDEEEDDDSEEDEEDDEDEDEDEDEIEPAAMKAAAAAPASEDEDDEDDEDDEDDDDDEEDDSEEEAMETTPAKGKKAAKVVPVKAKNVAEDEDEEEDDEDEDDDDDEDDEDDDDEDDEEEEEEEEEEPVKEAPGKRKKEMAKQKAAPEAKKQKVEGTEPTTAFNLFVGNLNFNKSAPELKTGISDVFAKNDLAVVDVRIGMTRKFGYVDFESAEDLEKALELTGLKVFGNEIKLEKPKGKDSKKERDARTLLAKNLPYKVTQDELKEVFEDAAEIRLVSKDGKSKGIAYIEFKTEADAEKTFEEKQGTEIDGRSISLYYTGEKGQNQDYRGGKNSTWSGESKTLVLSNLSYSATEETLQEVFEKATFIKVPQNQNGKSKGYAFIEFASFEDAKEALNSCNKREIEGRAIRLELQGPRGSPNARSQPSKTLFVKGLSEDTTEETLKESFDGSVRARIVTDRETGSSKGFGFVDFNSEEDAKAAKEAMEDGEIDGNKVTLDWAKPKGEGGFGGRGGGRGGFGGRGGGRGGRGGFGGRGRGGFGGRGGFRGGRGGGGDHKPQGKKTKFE

For “Myr-RRRHIVRKRTLRRLL-OH (Myristoyl-RRRHIVRKRTLRRLL-OH; SMILES CCCCCCCCCCCCCC(=O)N[C@@H](CCCNC(=N)N)C(=O)N[C@@H](CCCNC(=N)N)C(=O)N[C@@H](CCCNC(=N)N)C(=O)N[C@@H](Cc1c[nH]cn1)C(=O)N[C@H](C(=O)N[C@H](C(=O)N[C@@H](CCCNC(=N)N)C(=O)N[C@@H](CCCCN)C(=O)N[C@@H](CCCNC(=N)N)C(=O)N[C@H](C(=O)N[C@@H](CC(C)C)C(=O)N[C@@H](CCCNC(=N)N)C(=O)N[C@@H](CCCNC(=N)N)C(=O)N[C@@H](CC(C)C)C(=O)N[C@@H](CC(C)C)C(=O)O)[C@@H](C)O)C(C)C)[C@@H](C)CC) [myr-NLS]”, the “viability of non-transformed Rat-1 cells” value in the test with Rat-1 fibroblast cells is given as “had no effect”. Besides, in the test with EGFR (ErbB1) [1], the “levels of phosphorylated EGFR” value was “reduced”. Moreover, the “tumor growth (tumor size, tumor weight)” value in test [2] is “significantly reduced tumor cell growth; also recorded: inhibits pancreatic tumor growth”. For the same substance, the “ratio between EGFR and its phosphorylation state (activation of the EGFR)” value in the test with EGFR (ErbB1) [3] (FIG. 10C) was “affected the activation of the EGFR”. For the same substance, in the test with EGFR (ErbB1) [3] (FIGS. 10A-C), the “expression levels of EGFR in tumors” value is recorded as “reduced” and the “levels of phosphorylated EGFR in tumors” value is reported as “reduced”. In the test on Akt, the “Akt levels in tumors” value is recorded as “significant reduction”. In addition, the “nucleolin levels in tumors” value in the test with nucleolin [4] is recorded as “significant reduction”. The “levels of expression of nucleolin” value with nucleolin [5] is listed as “reduced the levels of expression”.
